Reference: US7988972B2, “Immunoreactive peptides from Epstein-Barr virus” (Ortho-Clinical Diagnostics, Inc., priority 1993, dated 2011)

How the values were obtained:
[1] = system: EA reactive antibody (IgG) in infectious mononucleosis (IM) sera; assay: ELISA, EA peptides with EBV infectious mononucleosis sera; format: binding, human; details: for ELISA result, peptides with and without extensions: EA positive EBV IM acute serum; for O.D.: 420 nm; for 50.1 ELISA (OD reading): IFA EA <10, OD >0.2 positive
Procedure: ELISA. The ELISA for measuring specific antibodies to p17, p50 or to the synthetic peptides was performed as previously described in detail (Luka et al., J. Immunol. Methods, 67:145-156, 1984). Aliquots of different antigen concentrations were diluted in 0.5M Na2CO3 buffer, pH 9.5, added to wells in polystyrene microtiter plates (Linbro) and the plates incubated overnight at 4° C. Following this incubation period, the plates were washed 5× with Tris-HCl, pH 7.4, containing 0.05% Tween 20, 50 mM NaCl and 100 mg per liter albumin (Sigma) and dried for 20 minutes at room temperature. The plates were screened with different anti-EA-R or EA-D antibody positive human sera and the monoclonal antibody to p17 or p50 to identify the optimal concentration of antigen to be used in the serological studies. Alkaline-phosphatase-labelled goat anti-human IgG (Sigma) or goat anti-mouse IgG (Sigma) was used as the indicator system.
For the testing of human sera for antibodies to native p17, p50 or to the synthetic peptides, sera were diluted 1:10 in ELISA buffer, added in 0.1 ml volumes to wells coated with optimal concentrations of antigen and the plates were incubated for 60 minutes at room temperature. After 4 washes with ELISA buffer, 100 μl of alkaline phosphatase-labelled goat anti-human IgG in ELISA buffer were added to each well and the plates were incubated at room temperature for 1 hour. Following four more washes in buffer, the enzyme reaction was performed by dissolving 1 mg per ml of Sigma alkaline phosphatase substrate in 1M diethanolamine buffer, pH 10.4, containing 1 mM MgCl2 and 0.1 mM ZnCl2, and 100 μl of the mixture was then added to each well. The reaction was allowed to proceed for 30 minutes at 37° C. and then the plates were screened directly with a microplate reader, TITERTEK MULTISKAN MC (Flow), at 420 nm. Readings above 0.1 which was 2× the background noted with antibody-negative sera were considered positive reactions.
When the entire 50.10 peptide was tested with 1M sera, 24/32 or 75% of the sera contained EA-D reactive antibody (IgG) (Table 4).
Serological reactivity of EA peptides p17.1 and p50.1 which contained additional amino acids on their amino and carboxy termini was tested on EBV IM acute sera which was EA positive. The ELISA results shown in Table 5 indicate that the additional amino acids improved reactivity for both EA peptides.
Immunofluorescence assays (IFA) were performed as described by Henle, et al. (Int. J. Cancer, 8:272-282, 1971). Western blot analysis was done by methods commonly used in the art (See for example, Coligan, et al., Current Protocols in Immunology, Wiley Interscience, 1991, Unit 12). Samples of EBV-infected cell lysates (P3HR-1) were tested with human whole antiserum from positive humans (Pearson, et al., Virology, 160:151-161, 1987). A comparison was made between EA serology by IFA, using the EA-D 50.1 peptide antisera, and ELISA serology using 50.1 peptide (see Example 2).

[2] = system: antibodies to peptides 50.10 (EA-D) and 17.1 (EA-R) in sequential sera; assay: IgG ELISA on sequential sera of a patient with acute infectious mononucleosis; format: binding, human; details: sera at 1.20 dilution, (+) >0.25
Excerpt: The early antigen D-R transition was followed in a patient during a course of acute infectious mononucleosis. Antibodies to peptides 50.10 (EA-D) and 17.1 (EA-R) were detected by ELISAs on specimens collected over a six month duration. […] Therefore, the peptides of the invention are useful for monitoring the course of EBV-associated disease in a patient.

[3] = 32 IM sera, values >0.5 positive (O.D. 420 nm)

For “KQKHPKKVKQAFNPL [p50.10, synthetic peptide from 50 Kd early antigen (EA-D) region of EBV]”, the “% Positive” value [1, 3] was 75%, the “IM sera positive / tested” value [1, 3] was 24/32 and the “ELISA result, peptides with and without extensions” value ([1]; sample no. 2241) was 0.673. The “ELISA result, peptides with and without extensions” value ([1]; sample no. 12498) was 0.342, the “ELISA result, peptides with and without extensions” value ([1]; sample no. 12836) was 0.722 and the SCORE ([1]; IM serum sample no. 2241) was “+ (Values >0.5 were considered positive (O.D. readings at 420 nm).)”. The SCORE ([1]; IM serum sample no. 11984) was “+ (Values >0.5 were considered positive (O.D. readings at 420 nm).)”, the O.D. ([1]; IM serum sample no. 11984) was 0.722 and the SCORE ([1]; IM serum sample no. 12005) was “− (Values >0.5 were considered positive (O.D. readings at 420 nm).)”. For the same sequence, the O.D. ([1]; IM serum sample no. 12005) was 0.441, the SCORE ([1]; IM serum sample no. 12288) was “+ (Values >0.5 were considered positive (O.D. readings at 420 nm).)” and the O.D. ([1]; IM serum sample no. 12288) was 0.610. For the same sequence, the SCORE ([1]; IM serum sample no. 12407) was “+ (Values >0.5 were considered positive (O.D. readings at 420 nm).)”, the O.D. ([1]; IM serum sample no. 12407) was 0.751 and the SCORE ([1]; IM serum sample no. 12409) was “+ (Values >0.5 were considered positive (O.D. readings at 420 nm).)”. The O.D. ([1]; IM serum sample no. 12409) was 0.609, the SCORE ([1]; IM serum sample no. 12418) was “− (Values >0.5 were considered positive (O.D. readings at 420 nm).)” and the O.D. ([1]; IM serum sample no. 12418) was 0.382. The SCORE ([1]; IM serum sample no. 12498) was “− (Values >0.5 were considered positive (O.D. readings at 420 nm).)”, the SCORE ([1]; IM serum sample no. 12502) was “− (Values >0.5 were considered positive (O.D. readings at 420 nm).)” and the O.D. ([1]; IM serum sample no. 12502) was 0.270. For the same sequence, the SCORE ([1]; IM serum sample no. 12587) was “+ (Values >0.5 were considered positive (O.D. readings at 420 nm).)”, the O.D. ([1]; IM serum sample no. 12587) was 0.890 and the SCORE ([1]; IM serum sample no. 12600) was “− (Values >0.5 were considered positive (O.D. readings at 420 nm).)”. The O.D. ([1]; IM serum sample no. 12600) was 0.323, the SCORE ([1]; IM serum sample no. 12611) was “− (Values >0.5 were considered positive (O.D. readings at 420 nm).)” and the O.D. ([1]; IM serum sample no. 12611) was 0.436. The SCORE ([1]; IM serum sample no. 12801) was “+ (Values >0.5 were considered positive (O.D. readings at 420 nm).)”, the O.D. ([1]; IM serum sample no. 12801) was 0.605 and the SCORE ([1]; IM serum sample no. 12828) was “+ (Values >0.5 were considered positive (O.D. readings at 420 nm).)”. For the same sequence, the O.D. ([1]; IM serum sample no. 12828) was 0.895, the SCORE ([1]; IM serum sample no. 12829) was “+ (Values >0.5 were considered positive (O.D. readings at 420 nm).)” and the O.D. ([1]; IM serum sample no. 12829) was 0.652. For the same sequence, the SCORE ([1]; IM serum sample no. 12836) was “+ (Values >0.5 were considered positive (O.D. readings at 420 nm).)”, the SCORE ([1]; IM serum sample no. 12837) was “+ (Values >0.5 were considered positive (O.D. readings at 420 nm).)” and the O.D. ([1]; IM serum sample no. 12837) was 1.491. The SCORE ([1]; IM serum sample no. 12840) was “+ (Values >0.5 were considered positive (O.D. readings at 420 nm).)”, the O.D. ([1]; IM serum sample no. 12840) was 0.723 and the SCORE ([1]; IM serum sample no. 12888) was “+ (Values >0.5 were considered positive (O.D. readings at 420 nm).)”. The O.D. ([1]; IM serum sample no. 12888) was 0.847, the SCORE ([1]; IM serum sample no. 12889) was “+ (Values >0.5 were considered positive (O.D. readings at 420 nm).)” and the O.D. ([1]; IM serum sample no. 12889) was 1.184. The SCORE ([1]; IM serum sample no. 12892) was “+ (Values >0.5 were considered positive (O.D. readings at 420 nm).)”, the O.D. ([1]; IM serum sample no. 12892) was 0.634 and the SCORE ([1]; IM serum sample no. 12893) was “+ (Values >0.5 were considered positive (O.D. readings at 420 nm).)”. For the same sequence, the O.D. ([1]; IM serum sample no. 12893) was 0.626, the SCORE ([1]; IM serum sample no. 12899) was “+ (Values >0.5 were considered positive (O.D. readings at 420 nm).)” and the O.D. ([1]; IM serum sample no. 12899) was 0.895. The SCORE ([1]; IM serum sample no. 12900) was “− (Values >0.5 were considered positive (O.D. readings at 420 nm).)”, the O.D. ([1]; IM serum sample no. 12900) was 0.498 and the SCORE ([1]; IM serum sample no. 13075) was “− (Values >0.5 were considered positive (O.D. readings at 420 nm).)”. For the same sequence, the O.D. ([1]; IM serum sample no. 13075) was 0.252, the SCORE ([1]; IM serum sample no. 13419) was “+ (Values >0.5 were considered positive (O.D. readings at 420 nm).)” and the O.D. ([1]; IM serum sample no. 13419) was 0.678. For the same sequence, the SCORE ([1]; IM serum sample no. 13637) was “+ (Values >0.5 were considered positive (O.D. readings at 420 nm).)”, the O.D. ([1]; IM serum sample no. 13637) was 0.886 and the SCORE ([1]; IM serum sample no. 13769) was “+ (Values >0.5 were considered positive (O.D. readings at 420 nm).)”. For the same sequence, the O.D. ([1]; IM serum sample no. 13769) was 1.307, the SCORE ([1]; IM serum sample no. 13929) was “+ (Values >0.5 were considered positive (O.D. readings at 420 nm).)” and the O.D. ([1]; IM serum sample no. 13929) was 1.031. The SCORE ([1]; IM serum sample no. 14043) was “+ (Values >0.5 were considered positive (O.D. readings at 420 nm).)”, the O.D. ([1]; IM serum sample no. 14043) was 0.631 and the SCORE ([1]; IM serum sample no. 14128) was “+ (Values >0.5 were considered positive (O.D. readings at 420 nm).)”. The O.D. ([1]; IM serum sample no. 14128) was 0.693, the SCORE ([1]; IM serum sample no. 14131) was “+ (Values >0.5 were considered positive (O.D. readings at 420 nm).)” and the O.D. ([1]; IM serum sample no. 14131) was 0.530. For the same sequence, the “50.1 ELISA (OD reading)” value ([1]; acute EBV IM sample 12502, diluted 1:10, EA-D Western blot positive) was 0.409, the “50.1 ELISA (OD reading)” value ([1]; acute EBV IM sample 12840, diluted 1:10, EA-D Western blot positive) was 0.257 and the “50.1 ELISA (OD reading)” value ([1]; acute EBV IM sample 13769, diluted 1:10, EA-D Western blot positive) was 1.034. The “IgG ELISA O.D. reading” value ([2]; serum no. 9817, May 26, 1988) was 0.104, the “IgG ELISA O.D. reading” value ([2]; serum no. 9820, May 31, 1988) was 0.094 and the “IgG ELISA O.D. reading” value ([2]; serum no. 9829, Jun. 07, 1988) was 0.120. The “IgG ELISA O.D. reading” value ([2]; serum no. 9941, Jun. 20, 1988) was 0.147, the “IgG ELISA O.D. reading” value ([2]; serum no. 9983, Jun. 27, 1988) was 0.817 and the “IgG ELISA O.D. reading” value ([2]; serum no. 10064, Jul. 18, 1988) was 0.821. For the same sequence, the “IgG ELISA O.D. reading” value ([2]; serum no. 10237, Aug. 29, 1988) was 0.561, the “IgG ELISA O.D. reading” value ([2]; serum no. 10271, Sep. 20, 1988) was 0.100 and the “IgG ELISA O.D. reading” value ([2]; serum no. 10488, Oct. 21, 1988) was 0.095. For the same sequence, the “IgG ELISA O.D. reading” value ([2]; serum no. 10546, Nov. 15, 1988) was 0.140.
